Measured values reported in patent US12404243B2, “Inhibitors of the Wnt/beta-catenin pathway” (The Regents of the University of California, priority 2018, dated 2025).

Key:
[1] = system: Wnt/β-catenin-mediated transcription; experiment: TCF-luciferase activity assay in 293T/Top/β-cat* cells; format: cell-based; conditions: summary of FIGS. 5A, B (293T/Top cells + LiCl) and 6A-C (293T/Top/β-cat* cells)
Method: (§1) 293T cells were maintained in DMEM medium containing 10% FBS and antibiotics (penicillin and streptomycin) at 37° C. in 5% CO2. Cells were stably infected with lentiviruses expressing the TopFlash reporter (293T/Top cells). The β-catenin mutant (β-cat*, the constitutively active mutant) construct was prepared using the retroviral expression vector by standard PCR. For viral transduction, retrovirus was obtained by co-trasfection of pQCXIP-β-cat* with packaging plasmids into 293T cells following the manufacturer's instructions. 293T/Top stable cells were seeded in 10 cm dish and incubated overnight. The next day cells were treated with retroviral particles. After 12 hours, the medium was replaced with fresh medium. 2 days post virus infection, the cells were selected with puromycin for 5 days to generate the 293T/Top/β-cat* stable cell line.
293 T/Top/β-cat* cells were plated at 40%-50% confluences in 12-well plate for 8 hours and then treated with Wnt inhibitors overnight. The luciferase activity of total cell lysates was measured using Luciferase Assay System (Promega). The related TCF-luciferase activity was normalized against the protein concentration of each cell lysate sample.

SW480 tumor xenografts = experiment: Mouse xenografts of SW480 cells; format: in vivo, nude mice; conditions: SW480 xenografts, 10 mg/kg
Method: 5×10^5 of SW480 cells were injected subcutaneously into the flank area of 6-8-week-old nude mice. Tumor volume was measured by using an electronic caliper and calculated with the formula length×width^2×0.5, every 2 days. 12 days after inoculation, tumor bearing mice were administered Wnt inhibitors (dissolved in 10% DMSO+20% Cremophor EL+70% normal saline) via intraperitoneal injection for 5 days per week for 10 days at 10 mg/kg. Animal body weights were measured before drug treatments and at the end of the experiments. At the end of the experiments, animals were euthanized with carbon dioxide, followed by cervical dislocation. The tumors were dissected and weighed on the digital balance. We housed mice in pathogen-free facilities under 12-h light and 12-h dark cycle. The animal protocol and experimental procedures were approved by the Division of Laboratory Animal Medicine of UCLA and were in accordance with the US National Institute of Health guidelines.

[2] = system: Wnt/β-catenin-mediated transcription; experiment: Topflash reporter activity induced by LiCl in 293T/Top cells; format: cell-based; conditions: 20 mM LiCl, increasing concentration of JC001 (FIG. 5A)
Method: as §1

In the case of `CN(C)CCC(=O)N1C/C(=C\c2ccccc2)C(=O)/C(=C/c2ccccc2)C1` [JC001, 3,5-Di((E)-benzylidene)-1-(3-(dimethylamino)propanoyl)piperidin-4-one], the Wnt/β-catenin-mediated transcription [1] is reported as “significantly inhibited”, the tumor volumes (SW480 tumor xenografts; day 12 to day 20 (FIG. 8A)) is reported as “significantly reduced tumor volumes” and the “actual tumor sizes at the end of treatment” value (SW480 tumor xenografts; day 12 to day 20 (FIG. 8B)) is reported as “reduced the size of tumors recovered”. The “actual tumor weights at the end of treatment” value (SW480 tumor xenografts; day 12 to day 20 (FIG. 8C)) was “significantly reduced the weight of tumors recovered” and the “Topflash reporter activities induced by LiCl” value [2] was “inhibit Topflash reporter activities”.
